{"source": "patent US20260242405A1", "about": "“N-DERIVATIZED SIALIC ACIDS AND RELATED SIALOSIDES” (THE REGENTS OF THE UNIVERSITY OF CALIFORNIA, priority 2023, published 2026)", "key": {"[1]": {"biological_target": "NB-Aus21 (IBV neuraminidase) (Influenza B virus, UniProt A0A1X9RX69)", "experiment": "biochemical", "design": "species or system influenza B virus B/Austria/1359417/2021", "conditions": "for Percentage inhibition against NB-Aus21 (IBV) / inhibition at 8 µM: substrate Neu5Acα2-3GalβMU 8.0 μM, Example 2, Table 2; for inhibition at 8 µM: read-out: Percentage inhibition against NB-Aus21 (IBV)"}, "[2]": {"biological_target": "T1, hNEU2 (human cytosolic sialidase) (Homo sapiens, UniProt Q9Y3R4)", "T1 construct": "made in house", "T1 sequence (Q9Y3R4 whole entry)": "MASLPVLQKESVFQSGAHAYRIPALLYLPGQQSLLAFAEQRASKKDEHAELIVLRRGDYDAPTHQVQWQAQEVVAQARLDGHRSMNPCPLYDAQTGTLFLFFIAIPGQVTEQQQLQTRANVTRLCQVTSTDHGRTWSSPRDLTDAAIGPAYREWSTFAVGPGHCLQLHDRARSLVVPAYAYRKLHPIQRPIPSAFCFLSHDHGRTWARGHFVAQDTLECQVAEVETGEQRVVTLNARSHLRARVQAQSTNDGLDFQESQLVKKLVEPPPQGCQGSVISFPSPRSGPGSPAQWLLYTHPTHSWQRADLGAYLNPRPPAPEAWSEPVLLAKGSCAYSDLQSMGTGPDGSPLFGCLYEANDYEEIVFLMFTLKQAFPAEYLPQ", "experiment": "Fluorescence-based inhibition assay (substrate Neu5Acα2-3GalβMU, β-galactosidase coupled)", "type": "biochemical", "conditions": "inhibitor 8.0 μM; for Percentage inhibition against hNEU2 / inhibition at 8 µM: substrate Neu5Acα2-3GalβMU 8.0 μM, Example 2, Table 2; for percent inhibition against hNEU2: Table 5; for inhibition at 8 µM: read-out: Percentage inhibition against hNEU2"}, "[3]": {"biological_target": "N1-BR18 (IAV neuraminidase) (Influenza A virus, UniProt A0A0X9QTS2)", "experiment": "Fluorescence-based inhibition assay (substrate Neu5Acα2-3GalβMU, β-galactosidase coupled)", "type": "biochemical, influenza A virus A/Brisbane/02/2018 (H1N1)", "conditions": "for Percentage inhibition against N1-BR18 (IAV) / percentage inhibition against N1-BR18: inhibitor 8.0 μM; for Percentage inhibition against N1-BR18 (IAV): substrate Neu5Acα2-3GalβMU 8.0 μM; for Percentage inhibition against N1-BR18 (IAV) / inhibition at 8 µM: Example 2, Table 2; for percentage inhibition against N1-BR18: Example 3, Table 4; for inhibition at 8 µM: read-out: Percentage inhibition against N1-BR18 (IAV), inhibitor 8.0 μM, substrate Neu5Acα2-3GalβMU 8.0 μM"}, "[4]": {"biological_target": "T2, PmST1 WT (sialidase activity of α2-3-sialyltransferase 1 in the presence of CMP) (Pasteurella multocida, UniProt Q15KI8)", "T2 construct": "made in house", "experiment": "biochemical", "conditions": "inhibitor 8.0 μM; in the presence of CMP; Table 5"}, "[5]": {"system": "N1-Vic19 (IAV neuraminidase)", "experiment": "Fluorescence-based inhibition assay (substrate Neu5Acα2-3GalβMU, β-galactosidase coupled)", "type": "biochemical, influenza A virus A/Victoria/2570/2019 (H1N1)", "conditions": "for percentage inhibition against N1-Vic19: inhibitor 8.0 μM, Example 3, Table 4"}, "SpNanA (sialidase)": {"biological_target": "T3, SpNanA (sialidase) (Streptococcus pneumoniae, UniProt P62575)", "T3 construct": "made in house", "experiment": "Fluorescence-based inhibition assay (substrate Neu5Acα2-3GalβMU, β-galactosidase coupled)", "type": "biochemical", "conditions": "inhibitor 8.0 μM; Table 5"}, "[6]": {"biological_target": "NB-Phu13 (IBV neuraminidase) (Influenza B virus, UniProt A0A1S5RAG6)", "experiment": "Fluorescence-based inhibition assay (substrate Neu5Acα2-3GalβMU, β-galactosidase coupled)", "type": "biochemical, influenza B virus B/Phuket/3073/2013", "conditions": "for percentage inhibition against NB-Phu13: inhibitor 8.0 μM, Example 3, Table 4"}, "[7]": {"biological_target": "N2-Kan17 (IAV neuraminidase) (Influenza A virus, UniProt A0A193ACB1)", "experiment": "Fluorescence-based inhibition assay (substrate Neu5Acα2-3GalβMU, β-galactosidase coupled)", "type": "biochemical, influenza A virus A/Kansas/14/2017 (H3N2)", "conditions": "inhibitor 8.0 μM; Example 3, Table 4"}, "[8]": {"biological_target": "N2-Dar21 (IAV neuraminidase) (Influenza A virus, UniProt A0A193ACB1)", "experiment": "Fluorescence-based inhibition assay (substrate Neu5Acα2-3GalβMU, β-galactosidase coupled)", "type": "biochemical, influenza A virus A/Darwin/9/2021 (H3N2)", "conditions": "inhibitor 8.0 μM; Example 3, Table 4"}}, "data": [{"compound": "CC(=O)N[C@H]1[C@H]([C@H](O)[C@H](O)CO)OC(O)(C(=O)O)C[C@@H]1N=[N+]=[N-]", "note": "(stereo partly shown) [4N3Neu5Ac (7), 4-azido-Neu5Ac]", "values": [{"measurement": "Percentage inhibition against NB-Aus21 (IBV)", "setting": "[1]; inhibitor 8.0 μM", "result": "37.5 ± 4.1", "unit": "%"}, {"measurement": "Percentage inhibition against hNEU2", "setting": "[2]", "result": "3.0 ± 0.8", "unit": "%"}, {"measurement": "Percentage inhibition against N1-BR18 (IAV)", "setting": "[3]", "result": "0.0 ± 4.5", "unit": "%"}]}, {"compound": "CC(=O)N[C@H]1[C@H]([C@H](O)[C@H](O)CO)OC(C(=O)O)=C[C@@H]1NC(C)=O", "note": "[4NAcNeu5Ac2en]", "values": [{"measurement": "percent inhibition against PmST1 WT", "setting": "[4]", "result": "7.1 ± 0.7", "unit": "%"}, {"measurement": "percentage inhibition against N1-Vic19", "setting": "[5]", "result": 0.7, "unit": "%"}, {"measurement": "Percentage inhibition against NB-Aus21 (IBV)", "setting": "[1]; inhibitor 8.0 μM", "result": "21.3 ± 0.2", "unit": "%"}, {"measurement": "percentage inhibition against NB-NB-Aus21", "setting": "[1]; inhibitor 8.0 μM, Example 3, Table 4", "result": 1.4, "unit": "%"}, {"measurement": "percent inhibition against SpNanA", "setting": "SpNanA (sialidase)", "result": "0.5 ± 6.5", "unit": "%"}, {"measurement": "Percentage inhibition against hNEU2", "setting": "[2]", "result": "2.1 ± 2.5", "unit": "%"}, {"measurement": "percent inhibition against hNEU2", "setting": "[2]", "result": "2.1 ± 2.5", "unit": "%"}, {"measurement": "Percentage inhibition against N1-BR18 (IAV)", "setting": "[3]", "result": "0.0 ± 2.5", "unit": "%"}, {"measurement": "percentage inhibition against N1-BR18", "setting": "[3]", "result": 2.5, "unit": "%"}, {"measurement": "percentage inhibition against NB-Phu13", "setting": "[6]", "result": 0.6, "unit": "%"}, {"measurement": "percentage inhibition against N2-Kan17", "setting": "[7]", "result": 6.1, "unit": "%"}, {"measurement": "percentage inhibition against N2-Dar21", "setting": "[8]", "result": 2.4, "unit": "%"}]}, {"compound": "CC(=O)N[C@H]1[C@H]([C@H](O)[C@H](O)CO)OC(C(=O)O)=C[C@@H]1N=[N+]=[N-]", "note": "[Compound 4N3Neu5Ac2en, 4N3Neu5Ac2en]", "values": [{"measurement": "percent inhibition against PmST1 WT", "setting": "[4]", "result": "15.4 ± 5.0", "unit": "%"}, {"measurement": "IC50", "setting": "[5]; Example 3, Table 6, read-out: IC50 against N1-Vic19", "result": "6200 ± 400", "unit": "nM"}, {"measurement": "percentage inhibition against N1-Vic19", "setting": "[5]", "result": 39.6, "unit": "%"}, {"measurement": "percentage inhibition against NB-NB-Aus21", "setting": "[1]; 8 µM", "result": "78.8±3.7", "unit": "%"}, {"measurement": "IC50", "setting": "[1]; Example 3, Table 6, read-out: IC50 against NB-NB-Aus21", "result": "1500 ± 100", "unit": "nM"}, {"measurement": "Percentage inhibition against NB-Aus21 (IBV)", "setting": "[1]; inhibitor 8.0 μM", "result": "82.8 ± 1.7", "unit": "%"}, {"measurement": "percent inhibition against SpNanA", "setting": "SpNanA (sialidase)", "result": "3.0 ± 1.3", "unit": "%"}, {"measurement": "Percentage inhibition against hNEU2", "setting": "[2]", "result": "3.3 ± 0.6", "unit": "%"}, {"measurement": "percent inhibition against hNEU2", "setting": "[2]", "result": "3.3 ± 0.6", "unit": "%"}, {"measurement": "IC50", "setting": "[3]; Example 3, Table 6, read-out: IC50 against N1-BR18", "result": "4400 ± 200", "unit": "nM"}, {"measurement": "Percentage inhibition against N1-BR18 (IAV)", "setting": "[3]", "result": "40.7 ± 2.7", "unit": "%"}, {"measurement": "percentage inhibition against N1-BR18", "setting": "[3]", "result": 39.2, "unit": "%"}, {"measurement": "IC50", "setting": "[6]; Example 3, Table 6, read-out: IC50 against NB-Phu13", "result": "1400 ± 100", "unit": "nM"}, {"measurement": "percentage inhibition against NB-Phu13", "setting": "[6]", "result": "75.6±1.6", "unit": "%"}, {"measurement": "percentage inhibition against N2-Kan17", "setting": "[7]", "result": 18.3, "unit": "%"}, {"measurement": "percentage inhibition against N2-Dar21", "setting": "[8]", "result": 22.1, "unit": "%"}]}, {"compound": "CC(=O)N[C@H]1[C@H]([C@H](O)[C@H](O)CO)OC(O)(C(=O)O)C[C@@H]1N", "note": "(stereo partly shown) [4NH2Neu5Ac (8), 4-amino-4-deoxy-N-acetylneuraminic acid]", "values": [{"measurement": "inhibition at 8 µM", "setting": "[1]; inhibitor 8.0 μM", "result": "41.8 ± 2.8", "unit": "%"}, {"measurement": "inhibition at 8 µM", "setting": "[2]", "result": "2.2 ± 1.2", "unit": "%"}, {"measurement": "inhibition at 8 µM", "setting": "[3]", "result": "28.6 ± 24.5", "unit": "%"}]}, {"compound": "CC(=O)N[C@H]1[C@H]([C@H](O)[C@H](O)CO)OC(O)(C(=O)O)C[C@@H]1O", "note": "(stereo partly shown) [Neu5Ac (1), N-Acetylneuraminic acid, reference compound]", "values": [{"measurement": "inhibition at 8 µM", "setting": "[1]; inhibitor 8.0 μM", "result": "20.2 ± 2.6", "unit": "%"}, {"measurement": "inhibition at 8 µM", "setting": "[2]", "result": "1.7 ± 0.5", "unit": "%"}, {"measurement": "inhibition at 8 µM", "setting": "[3]", "result": "5.2 ± 5.3", "unit": "%"}]}, {"compound": "CC(=O)N[C@H]1[C@H]([C@H](O)[C@H](O)CO)OC(O)(C(=O)O)C[C@@H]1NC(C)=O", "note": "(stereo partly shown) [4NAcNeu5Ac (3), 4NAcNeu5Ac]", "values": [{"measurement": "Percentage inhibition against NB-Aus21 (IBV)", "setting": "[1]; inhibitor 8.0 μM", "result": "27.9 ± 10.1", "unit": "%"}, {"measurement": "Percentage inhibition against hNEU2", "setting": "[2]", "result": "3.0 ± 1.0", "unit": "%"}, {"measurement": "Percentage inhibition against N1-BR18 (IAV)", "setting": "[3]", "result": "11.5 ± 22.7", "unit": "%"}]}, {"compound": "CC(=O)N[C@H]1[C@H]([C@H](O)[C@H](O)CO)OC(O)(C(=O)O)C[C@@H]1NC(=N)N", "note": "(stereo partly shown) [4-Guanidino-Neu5Ac (9), 4-guanidino-Neu5Ac]", "values": [{"measurement": "Percentage inhibition against NB-Aus21 (IBV)", "setting": "[1]; inhibitor 8.0 μM", "result": "51.0 ± 0.1", "unit": "%"}, {"measurement": "Percentage inhibition against hNEU2", "setting": "[2]", "result": "3.3 ± 0.6", "unit": "%"}, {"measurement": "Percentage inhibition against N1-BR18 (IAV)", "setting": "[3]", "result": "76.4 ± 4.9", "unit": "%"}]}]}
